According to patent US20110224276A1, “OPTICAL ISOMER OF PHENYLPROPIONIC ACID AND ITS MEDICINAL USE” (priority 2008, published 2011):
Where “and” joins values, the source holds several entries; their conditions need not be identical. Identical values can stand only once.

Assays:
SD rats [1] = experiment: long-term toxicity test in SD rats, thirteen-week consecutive intragastric administration and four-week convalescence; conditions: rats
Protocol: 2. […] The tested samples are formulated into suspensions by milling with 0.5% CMC—Na; intragastric administration (10 ml/kg) every day for consecutive 13 weeks; on each day, after administration, the general conditions of the animals are observed, and weight and amount of ingestion are determined once every week. In 24 hours after the last administration, half of rats in each tested group are fasted overnight, blood samples are withdrawn via femoral arteries, and the rats are dissected, and the indexes of blood cytology and biochemics, gloss anatomy and histopathological examination are preformed. The administration to remaining half rats is stopped, and the convalescence is observed; general conditions are observed and weight and amount of ingestion are determined once every week. After 4 weeks, the observation is complete, and the half of rats in each tested group are fasted overnight, blood samples are withdrawn via femoral arteries, and the rats are dissected, and the indexes of blood cytology and biochemics, gloss anatomy and histopathological examination are preformed.

Cox-1 = target: T1, Cox-1 (Ovis aries, UniProt P05979); experiment: inhibiting activity to COX-1 (TMPD colorimetric, 590 nm); type: biochemical; conditions: tested at 300, 100, 30, 10 μmol/L (positive control 100, 30, 10, 3)
T1 construct: purchased Cayman, USA
T1 sequence (P05979 25-600): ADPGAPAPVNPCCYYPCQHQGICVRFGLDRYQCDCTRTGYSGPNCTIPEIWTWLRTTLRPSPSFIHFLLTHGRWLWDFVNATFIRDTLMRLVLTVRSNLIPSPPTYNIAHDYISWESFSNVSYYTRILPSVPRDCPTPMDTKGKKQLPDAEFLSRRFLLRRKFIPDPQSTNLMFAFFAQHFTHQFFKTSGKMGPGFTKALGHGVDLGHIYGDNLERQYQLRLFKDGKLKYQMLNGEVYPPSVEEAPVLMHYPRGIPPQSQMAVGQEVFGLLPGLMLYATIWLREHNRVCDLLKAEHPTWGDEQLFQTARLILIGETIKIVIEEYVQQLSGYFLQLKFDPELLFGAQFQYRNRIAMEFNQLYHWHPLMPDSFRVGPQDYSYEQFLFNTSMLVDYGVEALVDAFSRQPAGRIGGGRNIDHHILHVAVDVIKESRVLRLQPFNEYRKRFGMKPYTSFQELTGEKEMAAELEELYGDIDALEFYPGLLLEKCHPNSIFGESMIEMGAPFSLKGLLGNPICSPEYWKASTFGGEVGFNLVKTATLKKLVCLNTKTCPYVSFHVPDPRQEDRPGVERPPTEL
Protocol: (§1) 2.5.1 The Inhibiting Activity to COX-1/COX-2
(§2) (1) In 220 ul of reaction system, mixed buffer (1×), heme, COX-1/COX-2, and the compound to be tested, are sequentially added, and are incubated for 5 minutes at 25° C.;
(§3) (2) Adding chromogenic substrate (TMPD) and arachidonic acid;
(§4) (3) Carefully shaking the plate for several seconds, then incubating for 15 minutes at 25° C.;
(§5) (4) Detecting absorption value at 590 nm.
(§6) Fitting data of concentration (μmol/L) and corresponding inhibition rate (%) via Microsoft EXCEL software to get a trendline, so as to obtain the half-effective inhibiting concentration (IC50) of each tested enzyme.

ICR mice [2] = experiment: in vivo
Description: (§7) Each tested group includes 5 dose-groups during the tests as follows:
Intragastric administration (ig)
(3) Observed periods: 14 days

Cox-2 = target: T2, Cox-2 (Homo sapiens, UniProt P35354); experiment: inhibiting activity to COX-2 (TMPD colorimetric, 590 nm); type: biochemical; conditions: tested at 300, 100, 30, 10 μmol/L (positive control 100, 30, 10, 3)
T2 construct: purchased Cayman, USA
T2 sequence (P35354 18-604): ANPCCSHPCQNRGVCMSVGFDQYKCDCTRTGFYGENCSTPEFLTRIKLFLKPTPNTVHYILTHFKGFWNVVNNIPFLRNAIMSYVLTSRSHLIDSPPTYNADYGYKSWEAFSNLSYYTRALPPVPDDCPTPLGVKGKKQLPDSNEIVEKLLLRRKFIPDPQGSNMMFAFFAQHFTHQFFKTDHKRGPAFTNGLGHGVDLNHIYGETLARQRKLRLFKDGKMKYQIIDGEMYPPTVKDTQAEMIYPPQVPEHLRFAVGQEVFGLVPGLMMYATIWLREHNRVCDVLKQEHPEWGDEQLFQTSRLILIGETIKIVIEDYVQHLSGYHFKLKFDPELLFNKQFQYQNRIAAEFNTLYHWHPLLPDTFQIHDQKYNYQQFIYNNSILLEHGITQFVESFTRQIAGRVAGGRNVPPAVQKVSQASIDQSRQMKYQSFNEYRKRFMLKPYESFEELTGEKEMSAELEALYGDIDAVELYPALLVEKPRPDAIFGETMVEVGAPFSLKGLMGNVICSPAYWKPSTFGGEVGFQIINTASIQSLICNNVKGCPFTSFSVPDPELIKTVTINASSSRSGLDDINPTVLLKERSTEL
Protocol: as §1, §2, §3, §4, §5, §6

SD rats [3] = experiment: toxicity test in SD rats, four-week consecutive intragastric administration; conditions: rats
Protocol: 2. […] The tested samples are formulated into suspensions by milling with 0.5% CMC—Na; intragastric administration every day (10 ml/kg) for consecutive 4 weeks; on each day, after administration, the general conditions of the animals are observed, and weight and amount of ingestion are determined once every week. In 24 hours after the last administration, the rats are fasted overnight, blood samples are withdrawn via femoral arteries, and the rats are dissected, and the indexes of blood cytology and biochemics, gloss anatomy and histopathological examination are preformed.

[4] = target: T3, 5-Lox (human recombinant) (Homo sapiens, UniProt P09917); experiment: inhibiting activity to 5-lipoxygenase (500 nm); type: biochemical; conditions: tested at 300, 100, 30, 10 μmol/L (positive control 100, 30, 10, 3)
T3 construct: purchased Cayman, USA
T3 sequence (P09917 1-674): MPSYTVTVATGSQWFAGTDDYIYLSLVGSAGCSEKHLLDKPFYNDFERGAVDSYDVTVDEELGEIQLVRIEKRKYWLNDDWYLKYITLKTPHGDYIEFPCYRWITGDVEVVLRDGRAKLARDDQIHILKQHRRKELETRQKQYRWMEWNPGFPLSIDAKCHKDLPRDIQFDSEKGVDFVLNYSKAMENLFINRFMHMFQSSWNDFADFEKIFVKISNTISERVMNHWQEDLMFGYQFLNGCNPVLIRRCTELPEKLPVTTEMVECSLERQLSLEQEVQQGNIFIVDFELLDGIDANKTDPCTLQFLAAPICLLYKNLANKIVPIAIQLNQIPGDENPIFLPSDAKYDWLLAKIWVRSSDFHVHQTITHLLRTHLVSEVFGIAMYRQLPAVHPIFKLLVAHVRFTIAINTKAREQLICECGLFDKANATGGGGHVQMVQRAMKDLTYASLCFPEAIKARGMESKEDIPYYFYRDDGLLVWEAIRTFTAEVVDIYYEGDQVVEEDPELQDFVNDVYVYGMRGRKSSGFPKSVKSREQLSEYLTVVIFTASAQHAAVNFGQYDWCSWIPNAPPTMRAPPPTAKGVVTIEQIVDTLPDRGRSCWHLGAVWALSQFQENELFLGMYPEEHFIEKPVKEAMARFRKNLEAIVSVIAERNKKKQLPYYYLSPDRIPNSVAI
Description: as §6

ICR mice [5] = experiment: in vivo; remark: listed apart in the source
Description: as §7
Intraperitoneal injection (ip)
(3) Observed periods: 14 days.

Substance: R-10,11-dihydro-alpha-methyl-10-oxo-dibenzo[b,f]tiazem-2-acetic acid:S-10,11-dihydro-alpha-methyl-10-oxo-dibenzo[b,f]tiazem-2-acetic acid (6:1) [S:R = 1:6]
- gastrointestinal tract toxicity (SD rats [1]; 13-week ig, S 50, 25, RS 50, R 400, 200, 100, R:S=6:1 200, 100, 50 mg/kg): not produce significant gastrointestinal tract toxicity
- nontoxic dosage (SD rats [1]; 13-week consecutive intragastric administration): 100 mg/kg
- IC50 (Cox-1): 70.3 µM
- Com. Vs. S (multiple) (ICR mice [2]; LD50 ig compared with S): 4.2 multiple
- LD50 (ICR mice [2]; mice, ig, single dose, 14 days observation, Bliss method): 1138.5 ± 80.3 mg/kg and 1138.5 mg/kg
- IC50 (Cox-2): 5.2 µM
- gastrointestinal tract toxicity (SD rats [3]; four-week ig, S 80, 40, RS 80, R 480, 240, 120, R:S=6:1 320, 160, 80 mg/kg): do not produce significant gastrointestinal tract toxicity
- nontoxic dosage (SD rats [3]; four-week consecutive intragastric administration): 160 mg/kg
- IC50 [4]: 18.6 µM
- Com. Vs. S (multiple) (ICR mice [5]; LD50 ip compared with S): 2.5 multiple
- LD50 (ICR mice [5]; mice, ip, single dose, 14 days observation, Bliss method): 497.6 ± 28.6 mg/kg
